Laboratory results as given in US7348427B2, “Antipathogenic benzamide compounds” (Genesoft Pharmaceuticals, Inc., priority 2001, dated 2008).

What was measured:
[1] = test system: S. pneumoniae ATCC 49619; experiment: MIC, NCCLS broth microdilution assay; type: cell-based, Streptococcus pneumoniae; settings: H = S. pneumoniae ATCC 49619
Summary of the method: (§1)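 Broth microdilution per NCCLS M7-A4 (1997) guidelines; MIC recorded as minimal inhibitory concentration.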

[2] = test system: E. faecalis ATCC 29212; experiment: MIC, NCCLS broth microdilution assay; type: cell-based, Enterococcus faecalis; settings: C = E. faecalis ATCC 29212
Summary of the method: as §1

[3] = test system: Candida albicans (ATCC 38247); experiment: Antifungal MIC assay; type: cell-based; settings: B = C. albicans ATCC 38247
Summary of the method: (§2)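 MIC determined by broth microdilution in microtiter plates per NCCLS documents M7-A4, M11-A4 (1997) and M27-T (1995). Antifungal testing against the yeast followed the method recommended in the Manual of Clinical Microbiology (1995).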

[4] = test system: Staphylococcus aureus (ATCC 13709, a methicillin sensitive strain (MSSA)); experiment: MIC, NCCLS broth microdilution assay; type: cell-based; settings: E = S. aureus ATCC 13709
Summary of the method: as §2

[5] = test system: Staphylococcus aureus (ATCC 27660, a methicillin resistant strain (MRSA)); experiment: MIC, NCCLS broth microdilution assay; type: cell-based; settings: F = S. aureus ATCC 27660
Summary of the method: as §2

[6] = test system: Bacillus cereus (ATCC 11778); experiment: MIC, NCCLS broth microdilution assay; type: cell-based; settings: A = B. cereus ATCC 11778
Summary of the method: as §2

Compound | Minimum Inhibitory Concentration (MIC) [1] | Minimum Inhibitory Concentration (MIC) [2] | Minimum Inhibitory Concentration (MIC) [3] | Minimum Inhibitory Concentration (MIC) [4] | Minimum Inhibitory Concentration (MIC) [5] | Minimum Inhibitory Concentration (MIC) [6]
Cn1cc(NC(=O)c2cc(NC(=O)c3cc(NC(=O)c4ccc(F)cc4F)cn3CCCO)cn2C)cc1C(=O)NCCN1CCOCC1 [Compound C-6] | +++ (+++ = MIC ≦ 4) | + (+ = 12 ≦ MIC ≦ 32) | >32 µg/mL | + (+ = 12 ≦ MIC ≦ 32) | + (+ = 12 ≦ MIC ≦ 32) | + (+ = 12 ≦ MIC ≦ 32)
COCn1cc(NC(=O)c2ccc(F)cc2F)cc1C(=O)Nc1cc(C(=O)Nc2cc(C(=O)NCCN3CCOCC3)n(C)c2)n(C)c1 [Compound C-7] | +++ (+++ = MIC ≦ 4) | + (+ = 12 ≦ MIC ≦ 32) | >32 µg/mL | ++ (++ = 4 < MIC < 12) | + (+ = 12 ≦ MIC ≦ 32) | + (+ = 12 ≦ MIC ≦ 32)
Cn1cc(NC(=O)c2cc(NC(=O)c3ccc(Cl)cc3F)c[nH]2)cc1C(=O)Nc1c[nH]c(C(=O)NCCN2CCOCC2)c1 [Compound C-8] | +++ (+++ = MIC ≦ 4) | +++ (+++ = MIC ≦ 4) | +++ (+++ = MIC ≦ 4) | +++ (+++ = MIC ≦ 4) | +++ (+++ = MIC ≦ 4) | +++ (+++ = MIC ≦ 4)
Cn1cc(NC(=O)c2cc(NC(=O)c3cc(NC(=O)c4ccc(Cl)cc4F)cn3C)c[nH]2)cc1C(=O)NCCN1CCOCC1 [Compound C-10] | +++ (+++ = MIC ≦ 4) | +++ (+++ = MIC ≦ 4) | + (+ = 12 ≦ MIC ≦ 32) | +++ (+++ = MIC ≦ 4) | +++ (+++ = MIC ≦ 4) | +++ (+++ = MIC ≦ 4)
Cn1cc(NC(=O)c2cc(NC(=O)c3cc(NC(=O)c4ccc(Cl)cc4F)c[nH]3)cn2CCCO)cc1C(=O)NCCN1CCOCC1 [Compound C-14] | +++ (+++ = MIC ≦ 4) | ++ (++ = 4 < MIC < 12) | >32 µg/mL | +++ (+++ = MIC ≦ 4) | +++ (+++ = MIC ≦ 4) | +++ (+++ = MIC ≦ 4)
Cn1cc(NC(=O)c2cc(NC(=O)c3cc(NC(=O)c4ccc(Cl)cc4F)c[nH]3)cn2CCCO)cc1C(=O)NCCN1CCOCC1 [Compound C-15] | +++ (+++ = MIC ≦ 4) | + (+ = 12 ≦ MIC ≦ 32) | >32 µg/mL | ++ (++ = 4 < MIC < 12) | +++ (+++ = MIC ≦ 4) | ++ (++ = 4 < MIC < 12)
Cn1cc(NC(=O)c2cc(NC(=O)c3cc(NC(=O)c4ccc(Cl)cc4F)cn3CCCO)cn2C)cc1C(=O)NCCN1CCOCC1 [Compound C-16] | +++ (+++ = MIC ≦ 4) | +++ (+++ = MIC ≦ 4) | >32 µg/mL | +++ (+++ = MIC ≦ 4) | +++ (+++ = MIC ≦ 4) | +++ (+++ = MIC ≦ 4)
COCn1cc(NC(=O)c2ccc(Cl)cc2F)cc1C(=O)Nc1cc(C(=O)Nc2cc(C(=O)NCCN3CCOCC3)n(C)c2)n(C)c1 [Compound C-17] | +++ (+++ = MIC ≦ 4) | +++ (+++ = MIC ≦ 4) | >32 µg/mL | +++ (+++ = MIC ≦ 4) | +++ (+++ = MIC ≦ 4) | +++ (+++ = MIC ≦ 4)
Cn1cc(NC(=O)c2cc(NC(=O)c3cc(NC(=O)c4ccc(Cl)cc4F)cn3C)cn2CCCCl)cc1C(=O)NCCN1CCOCC1 [Compound C-18] | +++ (+++ = MIC ≦ 4) | +++ (+++ = MIC ≦ 4) | >32 µg/mL | +++ (+++ = MIC ≦ 4) | +++ (+++ = MIC ≦ 4) | +++ (+++ = MIC ≦ 4)
Cn1cc(NC(=O)c2cc(NC(=O)c3cc(NC(=O)c4ccc(Cl)cc4F)c[nH]3)cn2CCCCl)cc1C(=O)NCCN1CCOCC1 [Compound C-19] | +++ (+++ = MIC ≦ 4) | +++ (+++ = MIC ≦ 4) | >32 µg/mL | +++ (+++ = MIC ≦ 4) | +++ (+++ = MIC ≦ 4) | +++ (+++ = MIC ≦ 4)
CCSCCCn1cc(NC(=O)c2cc(NC(=O)c3ccc(Cl)cc3SCC)cn2C)cc1C(=O)Nc1cc(C(=O)Nc2cc(C(=O)NCCN3CCOCC3)n(C)c2)n(C)c1 [Compound C-20] | +++ (+++ = MIC ≦ 4) | >32 µg/mL | >32 µg/mL | >32 µg/mL | >32 µg/mL | >32 µg/mL
Cc1cc(NC(=O)c2cc(NC(=O)c3cc(NC(=O)c4ccc(Cl)cc4NCCN4CCOCC4)cn3C)c[nH]2)sn1 [Compound C-21] | +++ (+++ = MIC ≦ 4) | ++ (++ = 4 < MIC < 12) | >32 µg/mL | ++ (++ = 4 < MIC < 12) | +++ (+++ = MIC ≦ 4) | ++ (++ = 4 < MIC < 12)
Cc1cc(NC(=O)c2cc(NC(=O)c3cc(NC(=O)c4ccc(Cl)cc4NCCN4CCCCC4)cn3C)c[nH]2)sn1 [Compound C-22] | +++ (+++ = MIC ≦ 4) | +++ (+++ = MIC ≦ 4) | + (+ = 12 ≦ MIC ≦ 32) | +++ (+++ = MIC ≦ 4) | +++ (+++ = MIC ≦ 4) | +++ (+++ = MIC ≦ 4)
Cc1cc(NC(=O)c2cc(NC(=O)c3cc(NC(=O)c4ccc(Cl)cc4NCCN4CCCC4)cn3C)c[nH]2)sn1 [Compound C-23] | +++ (+++ = MIC ≦ 4) | ++ (++ = 4 < MIC < 12) | >32 µg/mL | +++ (+++ = MIC ≦ 4) | +++ (+++ = MIC ≦ 4) | +++ (+++ = MIC ≦ 4)
Cc1cc(NC(=O)c2cc(NC(=O)c3cc(NC(=O)c4ccc(Cl)cc4NCCN4CCSCC4)cn3C)c[nH]2)sn1 [Compound C-24] | +++ (+++ = MIC ≦ 4) | ++ (++ = 4 < MIC < 12) | >32 µg/mL | ++ (++ = 4 < MIC < 12) | +++ (+++ = MIC ≦ 4) | ++ (++ = 4 < MIC < 12)
Cc1cc(NC(=O)c2cc(NC(=O)c3cc(NC(=O)c4ccc(Cl)cc4NCCCN4CCOCC4)cn3C)c[nH]2)sn1 [Compound C-25] | +++ (+++ = MIC ≦ 4) | >32 µg/mL | >32 µg/mL | >32 µg/mL | >32 µg/mL | >32 µg/mL
Cc1cc(NC(=O)c2cc(NC(=O)c3cc(NC(=O)c4ccc(F)cc4F)cn3C)cn2CCN2CCOCC2)sn1 [Compound D-1] | +++ (+++ = MIC ≦ 4) | +++ (+++ = MIC ≦ 4) | >32 µg/mL | +++ (+++ = MIC ≦ 4) | +++ (+++ = MIC ≦ 4) | +++ (+++ = MIC ≦ 4)
Cn1cc(NC(=O)c2ccc(F)cc2F)cc1C(=O)Nc1cc(C(=O)Nc2cc(C(=O)NCCN3CCCCC3)n(CCN3CCCCC3)c2)n(C)c1 [Compound D-5] | +++ (+++ = MIC ≦ 4) | +++ (+++ = MIC ≦ 4) | >32 µg/mL | +++ (+++ = MIC ≦ 4) | +++ (+++ = MIC ≦ 4) | +++ (+++ = MIC ≦ 4)
Cc1cc(NC(=O)c2cc(NC(=O)c3cc(NC(=O)c4ccc(F)cc4F)cn3C)cn2CCC[N+](C)(C)C)sn1 [Compound D-6] | +++ (+++ = MIC ≦ 4) | + (+ = 12 ≦ MIC ≦ 32) | >32 µg/mL | >32 µg/mL | + (+ = 12 ≦ MIC ≦ 32) | + (+ = 12 ≦ MIC ≦ 32)
CN(C)CCCn1cc(NC(=O)c2cc(NC(=O)c3ccc(F)cc3F)cn2C)cc1C(=O)Nc1cc(C(=O)NCCN2CCOCC2)n(C)c1 [Compound D-7] | +++ (+++ = MIC ≦ 4) | +++ (+++ = MIC ≦ 4) | + (+ = 12 ≦ MIC ≦ 32) | +++ (+++ = MIC ≦ 4) | +++ (+++ = MIC ≦ 4) | +++ (+++ = MIC ≦ 4)
